Test results as given in ChEMBL document CHEMBL5335856, “Structurally Diverse Alkaloids with Anti-Renal-Fibrosis Activity from the Centipede Scolopendra subspinipes mutilans” (J Nat Prod, 2024).
The source made the active and inactive calls.

Tests used:
Assay type in all cases: functional, cell-based
RAW264.7 [1] = experiment: Antiinflammatory activity against LPS-induced mouse RAW264.7 cells assessed as reduction in COX-2 protein level at 20 uM
RAW264.7 [2] = experiment: Antiinflammatory activity against LPS-induced mouse RAW264.7 cells assessed as reduction in iNOS protein level at 20 uM
NRK-52E [3] = experiment: Anti-renal-fibrosis activity in TGF-beta1 induced rat NRK-52E cells assessed as downregulation of collagen I protein level at 20 uM by Western blot analysis
NRK-52E [4] = experiment: Anti-renal-fibrosis activity in TGF-beta1 induced rat NRK-52E cells assessed as downregulation of alpha-SMA protein level at 20 uM by Western blot analysis
NRK-52E [5] = experiment: Anti-renal-fibrosis activity in TGF-beta1 induced rat NRK-52E cells assessed as downregulation of fibronectin protein level at 20 uM by Western blot analysis

Measured: Activity

COc1c(O)cnc2c(O)cccc12
active: RAW264.7 [1] | RAW264.7 [2]

N=C(N)N1CCC[C@H]1c1ccc2cc(O)cnc2c1O
active: RAW264.7 [1] | RAW264.7 [2]

COc1c(O)c(=O)n(C)c2c(O)cccc12
active: all assays above

COc1cc(=O)n(C)c2c(O)cccc12
active: all assays above

COc1cc(=O)[nH]c2c(OC)cccc12
active: all assays above

Oc1cnc2c(O)cccc2c1
active: RAW264.7 [1] | RAW264.7 [2]
